Data as given in PubChem BioAssay (NCI).
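Grown in 96-well plates, cells were treated for 48 hours with each compound at five concentrations. Insufficient inhibition: endpoint recorded as highest concentration tested. GI50 marks 50% less growth. Definition used: TGI = concentration required for complete inhibition of growth.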

Columns and labels:
Test in all cases: NCI anticancer screen, dose series, 48 h
[1] = test system: HCC-2998 colon
[2] = test system: CAKI-1 renal
[3] = test system: HOP-92 NSCLC
[4] = test system: MDA-MB-435
[5] = test system: HCT-15 colon
[6] = test system: CCRF-CEM leukemia
[7] = test system: OVCAR-8 ovarian
[8] = test system: IGROV1 ovarian
[9] = test system: SK-MEL-28 melanoma
[10] = test system: SK-MEL-5 melanoma
[11] = test system: HT29 colon
[12] = test system: SF-268 CNS
[13] = test system: HOP-62 NSCLC
[14] = test system: SK-OV-3 ovarian
[15] = test system: SF-295 CNS
[16] = test system: 786-0 renal
[17] = test system: U251 CNS
[18] = test system: TK-10 renal
[19] = test system: M14 melanoma
[20] = test system: EKVX NSCLC
[21] = test system: HCT-116 colon
[22] = test system: HS 578T breast
[23] = test system: SNB-75 CNS
[24] = test system: BT-549 breast
[25] = test system: LOX IMVI melanoma
[26] = test system: KM12 colon
[27] = test system: NCI-H23 lung
[28] = test system: NCI-H522 lung
[29] = test system: UO-31 renal
[30] = test system: SN12C renal
[31] = test system: HL-60(TB) leukemia
[32] = test system: PC-3 prostate
[33] = test system: NCI/ADR-RES ovarian
[34] = test system: DU-145 prostate
[35] = test system: SNB-19 CNS
[36] = test system: OVCAR-4 ovarian
[37] = test system: OVCAR-3 ovarian
[38] = test system: SF-539 CNS
[39] = test system: NCI-H460 lung
[40] = test system: UACC-62 melanoma
[41] = test system: RPMI-8226 leukemia
[42] = test system: UACC-257 melanoma
[43] = test system: NCI-H226 lung
[44] = test system: A498 renal
[45] = test system: A549 NSCLC
[46] = test system: SW-620 colon
[47] = test system: MDA-MB-231 breast
[48] = test system: COLO 205 colon
[49] = test system: MOLT-4 leukemia
[50] = test system: MCF7 breast
[51] = test system: T-47D breast
[52] = test system: SR leukemia
[53] = test system: ACHN renal
[54] = test system: OVCAR-5 ovarian
[55] = test system: RXF 393 renal
[56] = test system: SK-MEL-2 melanoma

COc1ccc2c(c1)cn1c3ccc(O)cc3[nH]c(=O)c21
GI50 [1]: 0.667 µM
TGI [1]: 4.42 µM
GI50 [2]: 0.302 µM
TGI [2]: 16.3 µM
GI50 [3]: 2.53 µM
TGI [3]: 18.2 µM
GI50 [4]: 0.0252 µM
TGI [4]: 0.171 µM
GI50 [5]: 0.111 µM
TGI [5]: 2.21 µM
GI50 [6]: 0.149 µM
TGI [6]: 4.66 µM
GI50 [7]: 0.428 µM
TGI [7]: 2.82 µM
GI50 [8]: 0.338 µM
TGI [8]: 4.77 µM
GI50 [9]: 0.147 µM
TGI [9]: 6.33 µM
GI50 [10]: 0.0362 µM
TGI [10]: 1.32 µM
GI50 [11]: 0.411 µM
TGI [11]: 2.18 µM
GI50 [12]: 0.136 µM
TGI [12]: 19.1 µM
GI50 [13]: 0.258 µM
TGI [13]: 17.9 µM
GI50 [14]: 0.202 µM
TGI [14]: 12.8 µM
GI50 [15]: 0.248 µM
TGI [15]: 3.52 µM
GI50 [16]: 0.334 µM
TGI [16]: 5.49 µM
GI50 [17]: 0.143 µM
TGI [17]: 1.9 µM
GI50 [18]: 0.881 µM
TGI [18]: 2.49 µM
GI50 [19]: 0.0984 µM
TGI [19]: 1.21 µM
GI50 [20]: 0.797 µM
TGI [20]: 19.2 µM
GI50 [21]: 0.0567 µM
TGI [21]: 1.61 µM
GI50 [22]: 0.481 µM
TGI [22]: 25.2 µM
GI50 [23]: 0.227 µM
TGI [23]: 13.6 µM
GI50 [24]: 2.73 µM
TGI [24]: 19.2 µM
GI50 [25]: 0.072 µM
TGI [25]: 1.96 µM
GI50 [26]: 0.329 µM
TGI [26]: 5.39 µM
GI50 [27]: 0.292 µM
TGI [27]: 15.5 µM
GI50 [28]: 0.0442 µM
TGI [28]: 1.24 µM
GI50 [29]: 0.264 µM
TGI [29]: 13.1 µM
GI50 [30]: 0.403 µM
TGI [30]: 17.9 µM
GI50 [31]: 0.216 µM
TGI [31]: 1.2 µM
GI50 [32]: 0.244 µM
TGI [32]: 16.4 µM
GI50 [33]: 0.187 µM
TGI [33]: 11.8 µM
GI50 [34]: 0.234 µM
TGI [34]: 8.74 µM
GI50 [35]: 0.203 µM
TGI [35]: 19.5 µM
GI50 [36]: 2.41 µM
TGI [36]: 13.4 µM
GI50 [37]: 0.0968 µM
TGI [37]: 1.74 µM
GI50 [38]: 0.175 µM
TGI [38]: 1.16 µM
GI50 [39]: 0.138 µM
TGI [39]: 1.62 µM
GI50 [40]: 0.151 µM
TGI [40]: 6.02 µM
GI50 [41]: 0.306 µM
TGI [41]: 1.93 µM
GI50 [42]: 0.836 µM
TGI [42]: 18.5 µM
GI50 [43]: 0.181 µM
TGI [43]: 6.92 µM
GI50 [44]: 0.377 µM
TGI [44]: 20.7 µM
GI50 [45]: 0.301 µM
TGI [45]: 1.82 µM
GI50 [46]: 0.043 µM
TGI [46]: 2.55 µM
GI50 [47]: 0.469 µM
TGI [47]: 2.47 µM
GI50 [48]: 0.409 µM
TGI [48]: 2.83 µM
GI50 [49]: 0.316 µM
TGI [49]: 6.95 µM
GI50 [50]: 0.366 µM
TGI [50]: 1.95 µM
GI50 [51]: 0.487 µM
TGI [51]: 2.37 µM
GI50 [52]: 0.0543 µM
TGI [52]: 2.7 µM
GI50 [53]: 0.112 µM
TGI [53]: 1.99 µM
GI50 [54]: 2.79 µM
TGI [54]: 21.5 µM
GI50 [55]: 0.0592 µM
TGI [55]: 0.627 µM
GI50 [56]: 0.215 µM
TGI [56]: 2.08 µM
